According to patent EP2488529B1, “Spirocyclic derivatives as histone deacetylase inhibitors” (DAC S.r.l., priority 2009, dated 2011):

Columns and labels:
[1] = system: HCT-116; assay: Cell growth, CellTiter-Glo Luminescent Cell Viability Assay (antiproliferative assay); format: cell-based; conditions: Homo sapiens; HCT-116 cells, incubated for 72 h; read-out: HCT116 IC50
Source text: (§1) CellTiter-Glo® Luminescent Cell Viability Assay (Promega) is a homogeneous method of determining the number of viable cells in culture based on quantitation of the present ATP, which indicates the presence of metabolically active cells. The homogeneous assay procedure involves addition of a single reagent (CellTiter-Glo® Reagent) directly to the cells, which leads to cell lysis and generation of a luminescent signal proportional to the amount of the ATP and the number of cells present in culture. The assay relies on the properties of a proprietary thermostable luciferase (Ultra-Glo® recombinant luciferase), which generates a luminescent signal. K562, A549, and HCT-116 cells, in exponential growth, were incubated for 72 h with different concentrations of the inhibitors. After 72 h, a volume of CellTiter-Glo® Reagent equal to the volume of cell culture medium was added. The content was mixed for 2 min to induce cell lysis. The luminescence was recorded after further 10 min at RT in order to obtain a stable luminescent signal.
(§2) The IC50 was calculated using GraphPad Software.

[2] = system: A549; assay: as above; format: cell-based; conditions: Homo sapiens; A549 cells, incubated for 72 h
Source text: as §1, §2

[3] = system: K562; assay: as above; format: cell-based; conditions: Homo sapiens; K562 cells, incubated for 72 h
Source text: as §1, §2

[4] = target: HDAC; assay: Assay of enzyme inhibition of HDAC (BIOMOL kit, fluorescence); format: biochemical; conditions: nuclear fraction of Hela cells; substrate 200 µM; 15 min at RT
Procedure: The in-vitro activity of HDAC inhibitors was assayed using a BIOMOL Kit, according to the instructions from the manufacturer (Biomolecular Research Laborator). 15 µl of 30 x diluted nuclear fraction of Hela cells, was diluted to 50 µl with the assay buffer containing the HDAC inhibitor and the substrate (lysine with acetylated amino group on the side chain) at a concentration of 200 µM. The samples were incubated for 15 min at RT and then exposed to a developer (10 min at RT). In this last step a fluorophore was produced, whose fluorescence was measured using an excitation wavelength of 355 nm and an emission at 460 nm. The IC50 was calculated using GraphPad Software.

Compound | IC50 [1] | IC50 [2] | IC50 [3] | IC50 [4]
O=C(/C=C/c1ccc2c(c1)C(=O)CC1(CCNC1)O2)NO (racemic) [Example 1, (±)-(E)-3-[4-Oxo-spiro(chromane-2,3'-pyrrolidine)-6-yl]-N-hydroxy-acrylamide] | 1000 to 3000 nM | 1000 to 3000 nM | ≥ 3000 nM | 100 to 1000 nM
CC(=O)N1CCC2(CC(=O)c3cc(/C=C/C(=O)NO)ccc3O2)C1 (racemic) [Example 5, (±)-(E)-3-[1'-Acetyl-4-oxo-spiro(chromane-2,3'-pyrrolidine)-6-yl]-N-hydroxy-acrylamide] | ≥ 3000 nM | ≥ 3000 nM | ≥ 3000 nM | 100 to 1000 nM
CCOC(=O)N1CCC2(CC(=O)c3cc(/C=C/C(=O)NO)ccc3O2)C1 (racemic) [Example 8, (±)-(E)-3-[1'-Ethyloxycarbonyl-4-oxo-spiro(chromane-2,3'-pyrrolidine)-6-yl]-N-hydroxy-acrylamide] | ≤ 1000 nM | ≤ 1000 nM | ≤ 1000 nM | 100 to 1000 nM
O=C(/C=C/c1ccc2c(c1)C(=O)CC1(CCCNC1)O2)NO (racemic) [Example 12, (±)-(E)-3-[4-Oxo-spiro(chromane-2,3'-piperidine)-6-yl]-N-hydroxy-acrylamide] | ≤ 1000 nM | ≤ 1000 nM | ≤ 1000 nM | 100 to 1000 nM
CN1CCCC2(CC(=O)c3cc(/C=C/C(=O)NO)ccc3O2)C1 (racemic) [Example 14, (±)-(E)-3-[1'-Methyl-4-oxo-spiro(chromane-2,3'-piperidine)-6-yl]-N-hydroxy-acrylamide] | ≤ 1000 nM | ≤ 1000 nM | ≤ 1000 nM | 100 to 1000 nM
CCOC(=O)N1CCCC2(CC(=O)c3cc(/C=C/C(=O)NO)ccc3O2)C1 (racemic) [Example 15, (±)-(E)-3-[1'-Ethyloxycarbonyl-4-oxo-spiro(chromane-2,3'-piperidine)-6-yl]-N-hydroxy-acrylamide] | ≤ 1000 nM | 1000 to 3000 nM | ≤ 1000 nM | 100 to 1000 nM
CC(=O)N1CCCC2(CC(=O)c3cc(/C=C/C(=O)NO)ccc3O2)C1 (racemic) [Example 16, (±)-(E)-3-[1'-Acetyl-4-oxo-spiro(chromane-2,3'-piperidine)-6-yl]-N-hydroxy-acrylamide] | ≥ 3000 nM | ≥ 3000 nM | ≥ 3000 nM | 100 to 1000 nM
O=C(/C=C/c1ccc2c(c1)C(=O)CC1(CCCN(Cc3ccc(F)cc3)C1)O2)NO (racemic) [Example 19, (±)-(E)-3-[1'-(4-Fluoro-benzyl)-4-oxo-spiro(chromane-2,3'-piperidine)-6-yl]-N-hydroxy-acrylamide] | ≤ 1000 nM | 1000 to 3000 nM | ≤ 1000 nM | ≤ 100 nM
O=C(/C=C/c1ccc2c(c1)C(=O)CC1(CCCNCC1)O2)NO (racemic) [Example 22, (±)-(E)-3-[4-Oxo-spiro(chromane-2,4'-azepane)-6-yl]-N-hydroxy-acrylamide] | 1000 to 3000 nM | ≥ 3000 nM | ≥ 3000 nM | 100 to 1000 nM
CC(=O)N1CCCC2(CC1)CC(=O)c1cc(/C=C/C(=O)NO)ccc1O2 (racemic) [Example 24, (±)-(E)-3-[1'-Acetyl-4-oxo-spiro(chromane-2,4'-azepane)-6-yl]-N-hydroxy-acrylamide] | ≥ 3000 nM | ≥ 3000 nM | ≥ 3000 nM | 100 to 1000 nM
CN1CCCC2(CC1)CC(=O)c1cc(/C=C/C(=O)NO)ccc1O2 (racemic) [Example 26, (±)-(E)-3-[1'-Methyl-4-oxo-spiro(chromane-2,4'-azepane)-6-yl]-N-hydroxy-acrylamide] | ≤ 1000 nM | ≤ 1000 nM | ≤ 1000 nM | 100 to 1000 nM
CCOC(=O)N1CCCC2(CC1)CC(=O)c1cc(/C=C/C(=O)NO)ccc1O2 (racemic) [Example 27, (±)-(E)-3-[1'-Ethyloxycarbonyl-4-oxo-spiro(chromane-2,4'-azepane)-6-yl]-N-hydroxy-acrylamide] | 1000 to 3000 nM | ≥ 3000 nM | 1000 to 3000 nM | 100 to 1000 nM
Cn1cc(CN2CCCC3(CC2)CC(=O)c2cc(/C=C/C(=O)NO)ccc2O3)c2ccccc21 (racemic) [Example 47, (±)-(E)-3-[1'-(1-Methyl-1H-indol-3-ylmethyl)-4-oxo-spiro(chromane-2,4'-azepane)-6-yl]-N-hydroxy-acrylamide] |  |  |  | 100 to 1000 nM
CCN1CCCC2(CC(=O)c3cc(/C=C/C(=O)NO)ccc3O2)C1 (racemic) [Example 48, (±)-(E)-3-[1'-Ethyl-4-oxo-spiro(chromane-2,3'-piperidine)-6-yl]-N-hydroxy-acrylamide] |  |  |  | 100 to 1000 nM

Results, then the compound that gave them:

IC50 [1] | IC50 [2] | IC50 [3] | IC50 [4] | Compound
≤ 1000 nM | ≤ 1000 nM | ≤ 1000 nM | ≤ 100 nM | O=C(/C=C/c1ccc2c(c1)C(=O)CC1(CCN(Cc3ccccc3)C1)O2)NO (racemic) [Example 2, (±)-(E)-3-[1'-Benzyl-4-oxo-spiro(chromane-2,3'-pyrrolidine)-6-yl]-N-hydroxy-acrylamide]
≤ 1000 nM | 1000 to 3000 nM | ≤ 1000 nM | 100 to 1000 nM | O=C(/C=C/c1ccc2c(c1)C(=O)CC1(CCN(C(=O)c3ccccc3)C1)O2)NO (racemic) [Example 6, (±)-(E)-3-[1'-Benzoyl-4-oxo-spiro(chromane-2,3'-pyrrolidine)-6-yl]-N-hydroxy-acrylamide]
≤ 1000 nM | ≤ 1000 nM | ≤ 1000 nM | 100 to 1000 nM | CN1CCC2(CC(=O)c3cc(/C=C/C(=O)NO)ccc3O2)C1 (racemic) [Example 7, (±)-(E)-3-[1'-Methyl-4-oxo-spiro(chromane-2,3'-pyrrolidine)-6-yl]-N-hydroxy-acrylamide]
≤ 1000 nM | ≤ 1000 nM | ≤ 1000 nM | ≤ 100 nM | O=C(/C=C/c1ccc2c(c1)C(=O)CC1(CCN(CCc3ccccc3)C1)O2)NO (racemic) [Example 9, (±)-(E)-3-[1'-(2-Phenyl-ethyl)-4-oxo-spiro(chromane-2,3'-pyrrolidine)-6-yl]-N-hydroxy-acrylamide]
≤ 1000 nM | ≤ 1000 nM | ≤ 1000 nM | ≤ 100 nM | Cn1cc(CN2CCC3(CC(=O)c4cc(/C=C/C(=O)NO)ccc4O3)C2)c2ccccc21 (racemic) [Example 10, (±)-(E)-3-[1'-(1-Methyl-1H-indol-3-ylmethyl)-4-oxo-spiro(chromane-2,3'-pyrrolidine)-6-yl]-N-hydroxy-acrylamide]
≤ 1000 nM | ≤ 1000 nM | ≤ 1000 nM | 100 to 1000 nM | O=C(/C=C/c1ccc2c(c1)C(=O)CC1(CCN(Cc3ccc(F)cc3)C1)O2)NO (racemic) [Example 11, (±)-(E)-3-[1'-(4-Fluoro-benzyl)-4-oxo-spiro(chromane-2,3'-pyrrolidine)-6-yl]-N-hydroxy-acrylamide]
≤ 1000 nM | ≤ 1000 nM | ≤ 1000 nM | ≤ 100 nM | O=C(/C=C/c1ccc2c(c1)C(=O)CC1(CCCN(Cc3ccccc3)C1)O2)NO (racemic) [Example 13, (±)-(E)-3-[1'-Benzyl-4-oxo-spiro(chromane-2,3'-piperidine)-6-yl]-N-hydroxy-acrylamide]
≤ 1000 nM | ≤ 1000 nM | ≤ 1000 nM | ≤ 100 nM | O=C(/C=C/c1ccc2c(c1)C(=O)CC1(CCCN(CCc3ccccc3)C1)O2)NO (racemic) [Example 20, (±)-(E)-3-[1'-(2-Phenyl-ethyl)-4-oxo-spiro(chromane-2,3'-piperidine)-6-yl]-N-hydroxy-acrylamide]
1000 to 3000 nM | ≥ 3000 nM | 1000 to 3000 nM | 100 to 1000 nM | O=C(/C=C/c1ccc2c(c1)C(=O)CC1(CCCN(C(=O)c3ccccc3)C1)O2)NO (racemic) [Example 21, (±)-(E)-3-[1'-Benzoyl-4-oxo-spiro(chromane-2,3'-piperidine)-6-yl]-N-hydroxy-acrylamide]
≤ 1000 nM | ≤ 1000 nM | ≤ 1000 nM | ≤ 100 nM | O=C(/C=C/c1ccc2c(c1)C(=O)CC1(CCCN(Cc3ccccc3)CC1)O2)NO (racemic) [Example 23, (±)-(E)-3-[1'-Benzyl-4-oxo-spiro(chromane-2,4'-azepane)-6-yl]-N-hydroxy-acrylamide]
≤ 1000 nM | ≥ 3000 nM | 1000 to 3000 nM | 100 to 1000 nM | O=C(/C=C/c1ccc2c(c1)C(=O)CC1(CCCN(C(=O)c3ccccc3)CC1)O2)NO (racemic) [Example 25, (±)-(E)-3-[1'-Benzoyl-4-oxo-spiro(chromane-2,4'-azepane)-6-yl]-N-hydroxy-acrylamide]
≤ 1000 nM | ≤ 1000 nM | ≤ 1000 nM | ≤ 100 nM | O=C(/C=C/c1ccc2c(c1)C(=O)CC1(CCCN(CCc3ccccc3)CC1)O2)NO (racemic) [Example 28, (±)-(E)-3-[1'-(2-Phenyl-ethyl)-4-oxo-spiro(chromane-2,4'-azepane)-6-yl]-N-hydroxy-acrylamide]
